Source: the NIST ThermoML archive (doi:10.1016/j.jct.2018.09.009)
± gives the expanded uncertainty stated by the source.

Assay: molar heat capacity at constant volume; xn = mol fraction of the nth substance listed
Conditions: Liquid, Vacuum adiabatic calorimetry

With C=C(F)C(F)(F)F [2,3,3,3-tetrafluoro-1-propene] + CCC the “molar heat capacity at constant volume” value (285.51 K, 7357 kPa, x1 = 0.607) was 88.54 ± 1.6 J/K/mol, the “molar heat capacity at constant volume” value (287.24 K, 8908 kPa, x1 = 0.825) was 95.69 ± 1.8 J/K/mol and the “molar heat capacity at constant volume” value (287.89 K, 8694 kPa, x1 = 0.607) was 88.89 ± 1.7 J/K/mol. For the same molecule, the “molar heat capacity at constant volume” value (289.57 K, 10249 kPa, x1 = 0.825) was 96.1 ± 1.8 J/K/mol, the “molar heat capacity at constant volume” value (290.27 K, 10038 kPa, x1 = 0.607) was 89.15 ± 1.6 J/K/mol and the “molar heat capacity at constant volume” value (291.9 K, 11593 kPa, x1 = 0.825) was 97.32 ± 1.8 J/K/mol. For the same molecule, the “molar heat capacity at constant volume” value (292.66 K, 11390 kPa, x1 = 0.607) was 89.15 ± 1.6 J/K/mol, the “molar heat capacity at constant volume” value (295.03 K, 12722 kPa, x1 = 0.607) was 89.41 ± 1.7 J/K/mol and the “molar heat capacity at constant volume” value (295.93 K, 1917 kPa, x1 = 0.825) was 96.81 ± 1.8 J/K/mol. For the same molecule, the “molar heat capacity at constant volume” value (298.32 K, 3042 kPa, x1 = 0.825) was 97.73 ± 1.8 J/K/mol, the “molar heat capacity at constant volume” value (300.77 K, 4193 kPa, x1 = 0.825) was 97.63 ± 1.8 J/K/mol and the “molar heat capacity at constant volume” value (302.78 K, 1793 kPa, x1 = 0.607) was 91.49 ± 1.7 J/K/mol. For the same molecule, the “molar heat capacity at constant volume” value (303.23 K, 5349 kPa, x1 = 0.825) was 97.53 ± 1.8 J/K/mol, the “molar heat capacity at constant volume” value (305.28 K, 2835 kPa, x1 = 0.607) was 91.83 ± 1.6 J/K/mol and the “molar heat capacity at constant volume” value (305.69 K, 6504 kPa, x1 = 0.825) was 99.26 ± 1.8 J/K/mol. The “molar heat capacity at constant volume” value (307.82 K, 3898 kPa, x1 = 0.607) was 91.4 ± 1.6 J/K/mol, the “molar heat capacity at constant volume” value (308.14 K, 7659 kPa, x1 = 0.825) was 98.75 ± 1.8 J/K/mol and the “molar heat capacity at constant volume” value (310.37 K, 4961 kPa, x1 = 0.607) was 92.35 ± 1.6 J/K/mol. The “molar heat capacity at constant volume” value (310.6 K, 8808 kPa, x1 = 0.825) was 100.68 ± 1.8 J/K/mol, the “molar heat capacity at constant volume” value (312.91 K, 6022 kPa, x1 = 0.607) was 93.48 ± 1.7 J/K/mol and the “molar heat capacity at constant volume” value (313.06 K, 9957 kPa, x1 = 0.825) was 100.58 ± 1.8 J/K/mol. The “molar heat capacity at constant volume” value (314.95 K, 2140 kPa, x1 = 0.285) was 84.58 ± 1.5 J/K/mol, the “molar heat capacity at constant volume” value (315.46 K, 7086 kPa, x1 = 0.607) was 93.82 ± 1.7 J/K/mol and the “molar heat capacity at constant volume” value (315.53 K, 11107 kPa, x1 = 0.825) was 102.31 ± 1.9 J/K/mol. For the same molecule, the “molar heat capacity at constant volume” value (317.06 K, 2127 kPa, x1 = 0.521) was 93.58 ± 1.9 J/K/mol, the “molar heat capacity at constant volume” value (317.4 K, 3029 kPa, x1 = 0.285) was 85.48 ± 1.6 J/K/mol and the “molar heat capacity at constant volume” value (318.01 K, 8150 kPa, x1 = 0.607) was 94.52 ± 1.7 J/K/mol. The “molar heat capacity at constant volume” value (319.49 K, 2066 kPa, x1 = 0.825) was 102.21 ± 1.8 J/K/mol, the “molar heat capacity at constant volume” value (319.6 K, 2994 kPa, x1 = 0.521) was 93.99 ± 1.8 J/K/mol and the “molar heat capacity at constant volume” value (319.85 K, 3919 kPa, x1 = 0.285) was 86.63 ± 1.6 J/K/mol. For the same molecule, the “molar heat capacity at constant volume” value (320.54 K, 9207 kPa, x1 = 0.607) was 95.55 ± 1.7 J/K/mol, the “molar heat capacity at constant volume” value (322.06 K, 2960 kPa, x1 = 0.825) was 103.02 ± 1.8 J/K/mol and the “molar heat capacity at constant volume” value (322.15 K, 3867 kPa, x1 = 0.521) was 94.07 ± 1.8 J/K/mol. For the same molecule, the “molar heat capacity at constant volume” value (322.29 K, 4807 kPa, x1 = 0.285) was 87.15 ± 1.6 J/K/mol, the “molar heat capacity at constant volume” value (323.08 K, 10263 kPa, x1 = 0.607) was 96.25 ± 1.7 J/K/mol and the “molar heat capacity at constant volume” value (324.62 K, 3854 kPa, x1 = 0.825) was 104.35 ± 1.9 J/K/mol. The “molar heat capacity at constant volume” value (324.7 K, 4739 kPa, x1 = 0.521) was 94.55 ± 1.8 J/K/mol, the “molar heat capacity at constant volume” value (324.78 K, 5712 kPa, x1 = 0.285) was 87.47 ± 1.6 J/K/mol and the “molar heat capacity at constant volume” value (325.63 K, 11326 kPa, x1 = 0.607) was 96.68 ± 1.7 J/K/mol. The “molar heat capacity at constant volume” value (327.17 K, 4744 kPa, x1 = 0.825) was 105.16 ± 1.9 J/K/mol, the “molar heat capacity at constant volume” value (327.23 K, 5608 kPa, x1 = 0.521) was 95.28 ± 1.8 J/K/mol and the “molar heat capacity at constant volume” value (327.29 K, 6626 kPa, x1 = 0.285) was 87.72 ± 1.6 J/K/mol. For the same molecule, the “molar heat capacity at constant volume” value (329.73 K, 5637 kPa, x1 = 0.825) was 105.87 ± 1.9 J/K/mol, the “molar heat capacity at constant volume” value (329.76 K, 6474 kPa, x1 = 0.521) was 95.44 ± 1.8 J/K/mol and the “molar heat capacity at constant volume” value (329.79 K, 7534 kPa, x1 = 0.285) was 87.53 ± 1.6 J/K/mol. The “molar heat capacity at constant volume” value (332.28 K, 8436 kPa, x1 = 0.285) was 87.98 ± 1.6 J/K/mol, the “molar heat capacity at constant volume” value (332.3 K, 6534 kPa, x1 = 0.825) was 105.97 ± 1.9 J/K/mol and the “molar heat capacity at constant volume” value (332.3 K, 7345 kPa, x1 = 0.521) was 94.79 ± 1.8 J/K/mol. For the same molecule, the “molar heat capacity at constant volume” value (334.76 K, 9337 kPa, x1 = 0.285) was 88.36 ± 1.7 J/K/mol, the “molar heat capacity at constant volume” value (334.85 K, 7427 kPa, x1 = 0.825) was 106.28 ± 1.9 J/K/mol and the “molar heat capacity at constant volume” value (334.85 K, 8221 kPa, x1 = 0.521) was 95.92 ± 1.8 J/K/mol. For the same molecule, the “molar heat capacity at constant volume” value (337.25 K, 10238 kPa, x1 = 0.285) was 88.81 ± 1.7 J/K/mol, the “molar heat capacity at constant volume” value (337.4 K, 8319 kPa, x1 = 0.825) was 106.89 ± 1.9 J/K/mol and the “molar heat capacity at constant volume” value (337.4 K, 9098 kPa, x1 = 0.521) was 96.32 ± 1.8 J/K/mol. The “molar heat capacity at constant volume” value (339.71 K, 11132 kPa, x1 = 0.285) was 88.87 ± 1.7 J/K/mol, the “molar heat capacity at constant volume” value (339.93 K, 9963 kPa, x1 = 0.521) was 96.24 ± 1.9 J/K/mol and the “molar heat capacity at constant volume” value (339.94 K, 9209 kPa, x1 = 0.825) was 106.69 ± 1.9 J/K/mol. For the same molecule, the “molar heat capacity at constant volume” value (342.17 K, 12023 kPa, x1 = 0.285) was 89.07 ± 1.7 J/K/mol, the “molar heat capacity at constant volume” value (342.44 K, 10822 kPa, x1 = 0.521) was 96.32 ± 1.8 J/K/mol and the “molar heat capacity at constant volume” value (342.47 K, 10092 kPa, x1 = 0.825) was 106.89 ± 1.9 J/K/mol. For the same molecule, the “molar heat capacity at constant volume” value (344.64 K, 12917 kPa, x1 = 0.285) was 89.19 ± 1.7 J/K/mol, the “molar heat capacity at constant volume” value (344.94 K, 11680 kPa, x1 = 0.521) was 96.56 ± 1.8 J/K/mol and the “molar heat capacity at constant volume” value (345.02 K, 10985 kPa, x1 = 0.825) was 107.2 ± 1.9 J/K/mol. For the same molecule, the “molar heat capacity at constant volume” value (347.09 K, 13803 kPa, x1 = 0.285) was 89.32 ± 1.7 J/K/mol, the “molar heat capacity at constant volume” value (347.44 K, 12532 kPa, x1 = 0.521) was 96.89 ± 1.8 J/K/mol and the “molar heat capacity at constant volume” value (347.55 K, 11870 kPa, x1 = 0.825) was 106.38 ± 1.9 J/K/mol.
